Measurements as given in US20230101963A1, “TREATMENT OF MEDICAL INDICATION” (VALLAURIX TRADING SARL MC, priority 2020, published 2023).

Key:
[1] = target: hMC2R (Homo sapiens, UniProt Q01718); assay: agonist activity on hMC2R; assay type: biochemical; details: versus selective agonist affinity for hMC1R and hMC4R
[2] = in vivo

hMC2R, sequence (Q01718 whole entry): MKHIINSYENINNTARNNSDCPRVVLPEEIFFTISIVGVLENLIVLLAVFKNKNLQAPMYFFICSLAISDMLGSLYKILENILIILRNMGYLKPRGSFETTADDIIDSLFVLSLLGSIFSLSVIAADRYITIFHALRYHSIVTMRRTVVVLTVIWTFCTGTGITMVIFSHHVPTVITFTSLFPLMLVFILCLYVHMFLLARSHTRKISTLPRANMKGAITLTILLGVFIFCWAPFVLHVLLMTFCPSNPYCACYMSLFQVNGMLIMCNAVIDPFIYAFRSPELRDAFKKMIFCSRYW
hMC2R, sequence (Q8TCY5 whole entry partner): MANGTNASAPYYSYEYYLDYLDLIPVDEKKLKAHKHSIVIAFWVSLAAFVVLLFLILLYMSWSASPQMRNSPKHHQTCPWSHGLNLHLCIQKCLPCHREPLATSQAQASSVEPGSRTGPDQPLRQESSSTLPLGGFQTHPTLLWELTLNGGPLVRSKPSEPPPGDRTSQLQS

- activity on hMC2R [1]: none
- central activity in human, indicating passage of the human blood-brain-barrier [2]: show central activity in human
Structure (SMILES): CCCC[C@H](NC(C)=O)C(=O)N[C@H]1CC(=O)NCCCC[C@@H](C(=O)O)NC(=O)[C@H](Cc2c[nH]c3ccccc23)NC(=O)[C@H](CCCN=C(N)N)NC(=O)[C@@H](Cc2ccccc2)NC(=O)[C@H](Cc2cnc[nH]2)NC1=O [bremelanotide, Ac-Nle-cyclo-(Asp-His-D-Phe-Arg-Trp-Lys-OH)]
